Earlier results as cited in patent US20200323770A1, “WOUND DEBRIDEMENT COMPOSITION AND METHOD FOR TREATING WOUNDS” (Hollister Incorporated, priority 2017, published 2020).

Conditions: in vitro; increasing papain concentrations 200-1,600 USP units/mg in 10% urea

papain
increased: collagenolysis | elastinolysis | fibrinolysis
